Data taken from patent US5741794A, “Heterocyclic sulfonamide derivatives as antagonists of PAF and angiotensin II” (British Biotech Pharmaceuticals Limited, priority 1992, dated 1998).

Target: T1, PAF receptor (Homo sapiens, UniProt P25105)
T1 construct: from tissue; host or cells: human platelets (platelet concentrates from a hospital blood bank), lysed platelet membranes
Test: Inhibition of [^3 H]-PAF Receptor Binding (human platelet plasma membrane)
Details: 0.5 nM [^3 H]-PAF, 0° C., 1 hour incubation, pH 7.0
Protocol: Inhibition of [^3 H]-PAF Receptor Binding
The inhibition of [^3 H]-PAF binding to human platelet plasma membrane by compounds of general formula I was determined by isotopic labelling and filtration techniques. Platelet concentrates were obtained from a hospital blood bank. These platelet concentrates (500-2500 mi.) were centrifuged at 800 rpm for 10 minutes in a SORVALL RC3B centrifuge to remove the red blood cells present. (The word SORVALL is a trade mark.) The supernatant was subsequently centrifuged at 3,000 rpm in a SORVALL RC3B centrifuge to pellet the platelets present. The platelet rich pellets were resuspended in a minimum volume of buffer (150 mM NaCl, 10 mM Tris, 2 mM EDTA, pH 7.5) and layered onto Ficoll-Paque gradients, 9 ml platelet concentrate to 2 ml Ficoll, and centrifuged at 1,900 rpm for 15 minutes in a SORVALL RT6000 centrifuge. This step removes the residual red blood cells and other nonspecific material such as lymphocytes from the preparation. The platelets which form a band between the plasma and the Ficoll were removed, resuspended in the above buffer and centrifuged at 3,000 rpm for 10 minutes in a SORVALL RT6000 centrifuge. The pelleted platelets were resuspended in buffer (10 mM Tris, 5 mM MgCl2, 2 mM EDTA, pH 7.0), snap freezed in liquid N2 and allowed to thaw slowly at room temperature in order to lyse the platelets. The latter step was repeated at least 3 times to ensure proper lysis. The lysed platelets were centrifuged at 3,000 rpm for 10 minutes in a SORVALL RT6000 centrifuge and resuspended in buffer. The latter step was repeated twice in order to remove any cytoplasmic proteins which may hydrolyse the platelet activating factor (PAF) receptor. The prepared platelet membranes may be stored at -70° C. After thawing the prepared membranes were centrifuged in a SORVALL RT6000 at 3,000 rpm for 10 minutes and resuspended in assay buffer.
The assay was conducted by preparing a series of Tris-buffered solutions of the selected antagonist of predetermined concentrations. […] Each washed residue was dried under vacuum on a sampling manifold and placed into vials containing 20 ml of OPTIPHASE MP scintillation fluid and the radioactivity counted in a liquid scintillation counter. (The word OPTIPHASE is a trade mark.) Defining the counts for total binding with antagonist from a test sample as "TBA"; the counts for total binding from the control sample C1 as "TB"; and the counts for nonspecific binding from the control sample C2 as "NSB", the percent inhibition of each test antagonist can be determined by the following equation: […]

T1 sequence (P25105 whole entry): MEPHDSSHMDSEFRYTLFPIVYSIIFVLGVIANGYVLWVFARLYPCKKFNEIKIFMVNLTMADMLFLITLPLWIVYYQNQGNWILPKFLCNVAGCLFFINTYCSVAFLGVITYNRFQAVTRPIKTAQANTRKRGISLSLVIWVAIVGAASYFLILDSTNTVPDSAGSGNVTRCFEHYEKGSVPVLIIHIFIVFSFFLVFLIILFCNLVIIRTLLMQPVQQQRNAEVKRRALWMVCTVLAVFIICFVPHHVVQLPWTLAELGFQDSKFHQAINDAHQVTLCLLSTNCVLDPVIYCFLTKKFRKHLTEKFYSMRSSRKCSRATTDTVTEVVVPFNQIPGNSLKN

| SMILES | IC50 |
| --- | --- |
| CCCCc1nc(Cl)c(CO)n1Cc1ccc(S(=O)(=O)N[C@@H](CC(C)C)C(=O)OCC)cc1 [Example 4, N-4-(1H-2-Butyl-4-chloro-5-hydroxymethylimidazolylmethyl)phenylsulphonyl-L-leucine ethyl ester] | 5 nM |
| CCOC(=O)[C@H](CC(C)C)NS(=O)(=O)c1ccc(Cn2ccnc2-c2ccccc2)cc1 [Example 1, N-4-(1H-2-Phenylimidazolylmethyl)phenylsulphonyl-L-leucine ethyl ester] | 7 nM |
| CCOC[C@H](CC(C)C)NS(=O)(=O)c1ccc(Cn2cnc3cccnc32)cc1 [Example 45A, N-4-(3H-Imidazo[4,5-b]pyridylmethyl)phenylsulphonyl-L-leucinyl ethyl ether] | 20 nM |
| CCc1nccn1Cc1ccc(S(=O)(=O)N(C)[C@@H](CC(C)C)C(=O)OC)cc1 [Example 43, N-Methyl-N-4-(1H-2-ethylimidazolylmethyl)phenylsulphonyl-L-leucine methyl ester] | 5 nM |
